The source of these data is PubChem BioAssay (NCI).

Several values for one entry are separate records, joined by “and”; a condition that tells them apart may be missing. Identical values can stand only once.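 Step 1: Grow cells in 96-well plates. Step 2: Expose to compound for 48 hours at 5 concentrations. Step 3: Interpolate endpoints linearly; if unreached, use highest concentration. GI50 marks 50% less growth. Definition used: TGI = concentration required for complete inhibition of growth.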

Test systems include 786-0 renal; CAKI-1 renal; HCC-2998 colon; HT29 colon; MOLT-4 leukemia; OVCAR-4 ovarian; RPMI-8226 leukemia; SNB-19 CNS.
Assay in all cases: NCI-60 cell line screen, 48 h

Regarding `CC1CCCc2c1c1ccc3c(O)cccc3c1oc2=O` (centres undefined), the TGI with 786-0 renal was 64.7 µM; with CAKI-1 renal, over 100 µM; in the test with HCC-2998 colon it was over 100 µM; in the test on HT29 colon, over 100 µM; in the test with MOLT-4 leukemia, over 100 µM; with OVCAR-4 ovarian, 91.3 µM. The TGI with RPMI-8226 leukemia and in the test on SNB-19 CNS was over 100 µM in each case.
With `CCOC(=O)C(C)(C)Oc1ccc2c(-c3ccc(Cl)cc3)c(-c3ccc(Cl)cc3)c(=O)oc2c1`, the TGI with 786-0 renal, with HCC-2998 colon, with HT29 colon, in the test on MOLT-4 leukemia, in the test with OVCAR-4 ovarian and in the test on RPMI-8226 leukemia was over 100 µM each time. In the test with SNB-19 CNS, this compound returned a TGI of over 100 µM.
Regarding `CC1[C@@H]2CC=C3[C@H]4CCC5Cc6nc7c(nc6C[C@@]5(C)C4(O)CC(=O)[C@]32CO[C@]12OC(C)(C)CC2O)CC1CC[C@@H]2C3=C[C@H]4O[C@@]5(O[C@@](C)(CO)C[C@@H]5O)C(C)[C@@]4(O)[C@]3(C)[C@@H](O)CC2[C@]1(C)C7` (some centres undefined), the GI50 in the test with 786-0 renal was 0.142 nM; with CAKI-1 renal it was 0.573 nM and 4.63 nM; in the test on HCC-2998 colon, 321 nM; in the test with HT29 colon, 0.918 nM and 1.23 nM; in the test on MOLT-4 leukemia, 0.12 nM and 0.36 nM; in the test with RPMI-8226 leukemia, under 0.00036 µM. In addition, the GI50 in the test with SNB-19 CNS was 2.41 nM and 16.4 nM. The TGI in the test on 786-0 renal is 0.0446 µM; in the test on CAKI-1 renal it was 0.365 µM and > 3.6 µM; with HCC-2998 colon it was over 3.6 µM; in the test on HT29 colon it was 0.0486 µM and 0.0623 µM; in the test on MOLT-4 leukemia it was 0.000159 µM and 0.00114 µM; in the test with OVCAR-4 ovarian, over 3.6 µM. Besides, the TGI with RPMI-8226 leukemia is 0.000322 µM and < 0.00036 µM; in the test on SNB-19 CNS, 0.393 µM and > 3.6 µM.
Regarding `CS/C(c1ccccc1)=[N+](\[O-])Cc1ccccc1`, the TGI in the test on 786-0 renal, with CAKI-1 renal, with HCC-2998 colon, in the test with HT29 colon, with MOLT-4 leukemia and in the test on OVCAR-4 ovarian was over 100 µM in each case. The TGI with RPMI-8226 leukemia is 55.3 µM; in the test on SNB-19 CNS, over 100 µM.
As to `CC(=O)/C=C1\CC(=O)Nc2ccccc2N1`, the TGI in the test on 786-0 renal, in the test with CAKI-1 renal, in the test on HCC-2998 colon, in the test on HT29 colon, in the test on MOLT-4 leukemia and in the test on OVCAR-4 ovarian was over 100 µM in each case. Besides, the TGI with RPMI-8226 leukemia and in the test with SNB-19 CNS was over 100 µM in each case.
With `COc1ccc2c(CCNC(=O)/C=C/c3ccccc3)c(C(C)=O)[nH]c2c1[N+](=O)[O-]`, the TGI in the test with 786-0 renal was over 100 µM; in the test on CAKI-1 renal, 44.5 µM; in the test with HCC-2998 colon, over 100 µM; with HT29 colon, over 100 µM; in the test with MOLT-4 leukemia, over 100 µM; with OVCAR-4 ovarian, over 100 µM. Besides, the TGI with RPMI-8226 leukemia and in the test with SNB-19 CNS was over 100 µM throughout.
As to `CC(=O)OC1CCC2C(=CCC3C2(C)C(=O)CC2(C)C(C4(C)OC(C(C)C)=CC4=O)C(O)CC32C)C1(C)C` (centres undefined), the TGI in the test with 786-0 renal is over 100 µM; in the test with CAKI-1 renal, over 100 µM; in the test with HT29 colon, 32.3 µM; in the test with MOLT-4 leukemia, over 100 µM; with RPMI-8226 leukemia, 56.7 µM; with SNB-19 CNS, over 100 µM.
With `CCN(CC)c1ccc(N=C2C=C(Cl)C(=O)c3ncccc32)c(C)c1`, the TGI in the test with 786-0 renal was determined as 12.2 µM; in the test on CAKI-1 renal it was 12 µM; in the test with HT29 colon, 30.2 µM; with MOLT-4 leukemia it was 13.8 µM; with OVCAR-4 ovarian, 18.3 µM; with RPMI-8226 leukemia, 90.3 µM. For the same compound, the TGI with SNB-19 CNS worked out at 89.4 µM.
`O=C(Nc1ccc(Br)cc1)C(=O)C(C(=O)c1ccccc1F)C1OC(=O)c2ccccc21` (centres undefined): the TGI in the test on 786-0 renal is 56.8 µM; with CAKI-1 renal it was 94.2 µM; in the test on HCC-2998 colon it was 32.1 µM; with HT29 colon it was over 100 µM; with MOLT-4 leukemia it was 92.8 µM; with OVCAR-4 ovarian, 76 µM. The TGI in the test with RPMI-8226 leukemia was 64.8 µM; in the test with SNB-19 CNS, over 100 µM.
Regarding `CCOC(=O)c1ccc(N2C(=O)Cc3ccccc3C2=O)cc1`, the TGI in the test with 786-0 renal, with HCC-2998 colon, in the test on HT29 colon, in the test with MOLT-4 leukemia, in the test with RPMI-8226 leukemia and in the test with SNB-19 CNS was over 100 µM in each case.
With `OCC(O)C(O)C(O)c1nn(-c2ccccc2)c2nc3cc(Cl)c(Cl)cc3nc12` (centres undefined), the TGI in the test on 786-0 renal was over 100 µM; in the test on CAKI-1 renal, 56.7 µM; in the test on HCC-2998 colon, 98.4 µM; with HT29 colon it was 57 µM; in the test on MOLT-4 leukemia, 87.6 µM; with OVCAR-4 ovarian, over 100 µM. In addition, the TGI in the test on RPMI-8226 leukemia and in the test with SNB-19 CNS was over 100 µM in each case.
In the case of `O=C(NC1C2CC3CC(C2)CC1C3)/C(Cl)=C1/Sc2ccccc2NC1=O` (centres undefined), the TGI with 786-0 renal, in the test on CAKI-1 renal, with HCC-2998 colon, in the test with HT29 colon, in the test with MOLT-4 leukemia and in the test on OVCAR-4 ovarian was over 100 µM throughout. Further, the TGI in the test on SNB-19 CNS is over 100 µM.
As to `O=C(Nc1nc2ccc([N+](=O)[O-])cc2s1)C(=O)C(C(=O)c1ccncc1)C1OC(=O)c2ccccc21` (centres undefined), the TGI in the test on 786-0 renal, with CAKI-1 renal, in the test on HCC-2998 colon, in the test with HT29 colon, in the test with MOLT-4 leukemia and in the test with OVCAR-4 ovarian was over 100 µM in each case. The TGI in the test on RPMI-8226 leukemia and in the test with SNB-19 CNS was over 100 µM throughout.
In the case of `CC(C)C(=O)[O-].CC(C)C(=O)[O-].N.N.N.N.[Co+3].[O-][Cl+3]([O-])([O-])[O-]`, the GI50 with 786-0 renal is over 100000 nM; in the test with HCC-2998 colon, over 100000 nM; with HT29 colon, over 100000 nM; in the test on MOLT-4 leukemia, over 100000 nM; in the test on OVCAR-4 ovarian, over 100 µM; with RPMI-8226 leukemia, over 100 µM. Besides, the GI50 with SNB-19 CNS is over 100000 nM. Further, the TGI in the test with 786-0 renal, with HCC-2998 colon, in the test with HT29 colon, with MOLT-4 leukemia, in the test with OVCAR-4 ovarian and with RPMI-8226 leukemia was over 100 µM each time. Moreover, the TGI in the test on SNB-19 CNS is over 100 µM.
As to `CCOC(=O)N1C(c2ccccc2)C=CC(c2ccccc2)N1C(=O)OCC` (centres undefined), the TGI with 786-0 renal, in the test with CAKI-1 renal, in the test on HT29 colon, in the test with OVCAR-4 ovarian, in the test with RPMI-8226 leukemia and in the test on SNB-19 CNS was over 100 µM in each case.
